Consider two molecules from PMC5966831 (Biochemistry, 2013).

One data set addresses N′70 (Caldanaerobacter subterraneus, UniProt Q8RD41, C137S/L167D). Type of data set: binding. The conditions noted are these: SD, n = 3.
Data set [1] deals with T1, AFF210 (Caldanaerobacter subterraneus, UniProt Q8RD41, C137S/D254S/INS245C/L167D). Type of data set: binding. The conditions noted are these: SD, n = 3.
The target of a further data set is N′210 (Caldanaerobacter subterraneus, UniProt Q8RD41, C137S/L167D). Type of data set: binding. To be noted: SD, n = 3.
For another data set, the target named is N′186 (Caldanaerobacter subterraneus, UniProt Q8RD41, C137S/L167D). Type of data set: binding. To be noted: SD, n = 3.
For data set [2], the target named is T2, AFF70 (Caldanaerobacter subterraneus, UniProt Q8RD41, C137S/F53A/F54A/INS105C/L167D). Type of data set: binding. To be noted: SD, n = 3.
The target of data set [3] is T3, AFF186 (Caldanaerobacter subterraneus, UniProt Q8RD41, C137S/D254S/INS221C/L167D). Type of data set: binding. To be noted: SD, n = 3.
Data set [4] has as its target T3, AFF186. Nature of the data set: Equilibrium fluorescence. Type of data set: binding.
The next data set addresses N′60 (Caldanaerobacter subterraneus, UniProt Q8RD41, C137S/L167D). Type of data set: binding. To be noted: SD, n = 3.
Data set [5] deals with T1, AFF210. In words: Equilibrium fluorescence. Type of data set: binding.
For data set [6], the target named is T2, AFF70. In words: Equilibrium fluorescence. Type of data set: binding.
A short description of data set [7]: Thermal denaturation monitored by circular dichroism. To be noted: E. coli RBP and its permutants, apo forms, Figure S7. Type of data set: physicochemical. For orientation: Circular dichroism is widely used to follow secondary structure.

Like-named read-outs stand apart in the source and are kept apart here.

As a reminder, the Kd is the concentration at which binding is half-saturated. Consider `OC1OC[C@@H](O)[C@@H](O)[C@H]1O` (stereo partly drawn) [ribose, D-ribose], for which the Kd on N′70 was found to be 2740 ± 240 nM; at AFF210 [1], 26.1 ± 1.5 nM; on N′210 it was 21.6 ± 1.4 nM; on N′186, 38.1 ± 0.4 nM; on AFF70 [2], 46.6 ± 5.5 nM; at AFF186 [3], 58.8 ± 0.17 nM. Further, the Kd was determined as 12300 nM on AFF186 [4], 21.3 ± 1.1 nM at N′60, 4200 nM on AFF210 [5] and 4200 nM at AFF70 [6].

B1: E. coli RBP: Escherichia coli ribose binding protein (protein, UniProt P02925 26-296, looked up)
Ribose import binding protein …: KDTIALVVSTLNNPFFVSLKDGAQKEADKLGYNLVVLDSQNNPAKELANVQDLTVRGTKILLINPTDSDAVGNAVKMANQANIPVITLDRQATKGEVVSHIASDNVLGGKIAGDYIAKKAGEGAKVIELQGIAGTSAARERGEGFQQAVAAHKFNVLASQPADFDRIKGLNVMQNLLTAHPDVQAVFAQNDEMALGALRALQTAGKSDVMVVGFDGTPDGEKAVNDGKLAATIAQLPDQIGAKGVETADKVLKGEKVQAKYPVDLKLVVKQ
Broadly, the Tm is the temperature at which the thermal transition is half complete. As to B1, in data set [7], the Tm is 55 °C.
